Values after ≈ are worked out from the molar mass of the structure shown. Where two headings read alike, the source gives them in different places.
Experiments:
Test in all cases: antibacterial activity in vitro, agar dilution method
Format in all cases: cell-based
Escherichia coli = tested on: Escherichia coli
Text: (§1) The antibacterial spectrum and in vitro antibacterial activity of the compound of the present invention
(§2) Experimental method: the agar dilution method, with reference to Clinical And Laboratory Standards Institute. Methods for Dilution Antimicrobial Susceptibility Tests for Bacteria That Grow Aerobically; Approved Standard-Seventh Edition. CLSI Document M7-A7. Vol 26, no. 2, Wayne, Pa.: Clinical and Laboratory Standards Institute, 2006.
(§3) Wherein MIC represents the minimum inhibitory concentration, MIC90 represents the 90% inhibitory concentration.

Acinetobacter baumannii = details: read-out: antibacterial activity MIC, Acinetobacter baumannii
Text: as §1, §2, §3

Klebsiella pneumoniae = tested on: Klebsiella pneumoniae
Text: as §1, §2, §3

[1] = tested on: Methicillin-resistant Staphycoccus epidermidis (MRSE); details: Staphylococcus epidermidis, Table 3
Text: as §1, §2, §3

[2] = tested on: Methicillin-resistant Staphylococcus aureus (MRSA)
Text: as §1, §2, §3

Klebsiella oxytoca = details: Table 3
Text: as §1, §2, §3

Streptococus agalactiae = details: Table 4
Text: as §1, §2, §3

[3] = tested on: Acinetobacter calcoaceticus; details: Table 4
Text: as §1, §2, §3

Enterococcus faecalis = details: Table 4
Text: as §1, §2, §3

Structure (SMILES): CN(C)c1cc(CN2CCC3(CCCC3)CC2)c(O)c2c1CC1CC3[C@H](N(C)C)C(O)=C(C(N)=O)C(=O)[C@@]3(O)C(O)=C1C2=O (some centres unmarked) [Compound d, reference compound]
- MIC (Escherichia coli; Table 3): 2 µg/mL (≈ 3.29 µM)
- MIC (Acinetobacter baumannii; Table 3, agar dilution): 4 µg/mL (≈ 6.57 µM)
- MIC (Klebsiella pneumoniae; Table 3): 8 µg/mL (≈ 13.1 µM)
- MIC [1]: 2 µg/mL (≈ 3.29 µM)
- MIC ([2]; Table 3, agar dilution): 1 µg/mL (≈ 1.64 µM)
- MIC (Klebsiella oxytoca): 8 µg/mL (≈ 13.1 µM)

Structure (SMILES): CN(C)c1cc(CN2CC3C(C2)C3(C)C)c(O)c2c1C[C@H]1C[C@H]3[C@H](N(C)C)C(O)=C(C(N)=O)C(=O)[C@@]3(O)C(O)=C1C2=O (stereo partly drawn) [Compound 27, (4S,4aS,5aR,12aS)-9-((6-dimethyl-3-azabicyclo[3.1.0]hexan-3-yl)methyl)-4,7-bis(dimethylamino)-3,10,12,12a-tetrahydroxy-1,1′-dioxo-1,4,4a,5,5a,6,11,12a-octahydrotetracene-2-carboxamide]
- MIC (Escherichia coli; Table 4): 2 µg/mL (≈ 3.44 µM)
- MIC (Acinetobacter baumannii; Table 4, agar dilution): 0.5 µg/mL (≈ 0.861 µM)
- MIC (Klebsiella pneumoniae; Table 4): 4 µg/mL (≈ 6.89 µM)
- MIC (Streptococus agalactiae): 0.125 µg/mL (≈ 0.215 µM)
- MIC [3]: 0.125 µg/mL (≈ 0.215 µM)
- MIC ([2]; Table 4, agar dilution): 0.5 µg/mL (≈ 0.861 µM)
- MIC (Enterococcus faecalis): 0.125 µg/mL (≈ 0.215 µM)

Structure (SMILES): CN(C)c1cc(CN2CC(C)(C)C2)c(O)c2c1C[C@H]1C[C@H]3[C@H](N(C)C)C(O)=C(C(N)=O)C(=O)[C@@]3(O)C(O)=C1C2=O [Compound 1, (4S,4aS,5aR,12aS)-9-((3,3-dimethylazetidin-1-yl)methyl)-4,7-bis(dimethylamino)-3,10,12,12a-tetrahydroxy-1,1′-dioxo-1,4,4a,5,5a,6,11,12a-octahydrotetracene-2-carboxamide]
- MIC (Escherichia coli; Table 3): 1 µg/mL (≈ 1.8 µM)
- MIC (Acinetobacter baumannii; Table 3, agar dilution): 1 µg/mL (≈ 1.8 µM)
- MIC (Klebsiella pneumoniae; Table 3): 2 µg/mL (≈ 3.61 µM)
- MIC [1]: 1 µg/mL (≈ 1.8 µM)
- MIC ([2]; Table 3, agar dilution): 0.5 µg/mL (≈ 0.901 µM)
- MIC (Klebsiella oxytoca): 1 µg/mL (≈ 1.8 µM)

Structure (SMILES): CN(C)c1cc(CN2CC3CCCC3C2)c(O)c2c1C[C@H]1C[C@H]3[C@H](N(C)C)C(O)=C(C(N)=O)C(=O)[C@@]3(O)C(O)=C1C2=O (stereo partly drawn) [Compound 28, (4S,4aS,5aR,12aS)-4,7-bis(dimethylamino)-9-((hexahydrocyclopenta[c]pyrrol-2(1H)-yl)methyl)-3,10,12,12a-tetrahydroxy-1,1′-dioxo-1,4,4a,5,5a,6,11,12a-octahydrotetracene-2-carboxamide]
- MIC (Escherichia coli; Table 4): 1 µg/mL (≈ 1.72 µM)
- MIC (Acinetobacter baumannii; Table 4, agar dilution): 1 µg/mL (≈ 1.72 µM)
- MIC (Klebsiella pneumoniae; Table 4): 2 µg/mL (≈ 3.44 µM)
- MIC (Streptococus agalactiae): 0.125 µg/mL (≈ 0.215 µM)
- MIC [3]: 0.125 µg/mL (≈ 0.215 µM)
- MIC ([2]; Table 4, agar dilution): 0.5 µg/mL (≈ 0.861 µM)
- MIC (Enterococcus faecalis): 0.06 µg/mL (≈ 0.103 µM)

Structure (SMILES): CN(C)c1cc(CN2CC3CC(C3)C2)c(O)c2c1C[C@H]1C[C@H]3[C@H](N(C)C)C(O)=C(C(N)=O)C(=O)[C@@]3(O)C(O)=C1C2=O [Compound 24, (4S,4aS,5aR,12aS)-9-(3-azabicyclo[3.1.1]heptan-3-ylmethyl)-4,7-bis(dimethylamino)-3,10,12,12a-tetrahydroxy-1,1′-dioxo-1,4,4a,5,5a,6,11,12a-octahydrotetracene-2-carboxamide]
- MIC (Escherichia coli; Table 4): 1 µg/mL (≈ 1.76 µM)
- MIC (Acinetobacter baumannii; Table 4, agar dilution): 1 µg/mL (≈ 1.76 µM)
- MIC (Klebsiella pneumoniae; Table 4): 2 µg/mL (≈ 3.53 µM)
- MIC (Streptococus agalactiae): 0.125 µg/mL (≈ 0.221 µM)
- MIC [3]: 0.25 µg/mL (≈ 0.441 µM)
- MIC ([2]; Table 4, agar dilution): 0.5 µg/mL (≈ 0.882 µM)
- MIC (Enterococcus faecalis): 0.25 µg/mL (≈ 0.441 µM)

Structure (SMILES): CN(C)c1cc(CN2CC3CCCCC3C2)c(O)c2c1C[C@H]1C[C@H]3[C@H](N(C)C)C(O)=C(C(N)=O)C(=O)[C@@]3(O)C(O)=C1C2=O (stereo partly drawn) [Compound 29, (4S,4aS,5aR,12aS)-9-((1H-isoindol-2(3H,3aH,4H,5H,6H,7H,7aH)-yl)methyl)-4,7-bis(dimethylamino)-3,10,12,12a-tetrahydroxy-1,11-dioxo-1,4,4a,5,5a,6,11,12a-octahydrotetracene-2-carboxamide]
- MIC (Escherichia coli; Table 4): 1 µg/mL (≈ 1.68 µM)
- MIC (Acinetobacter baumannii; Table 4, agar dilution): 2 µg/mL (≈ 3.36 µM)
- MIC (Klebsiella pneumoniae; Table 4): 4 µg/mL (≈ 6.73 µM)
- MIC (Streptococus agalactiae): 0.25 µg/mL (≈ 0.42 µM)
- MIC [3]: 0.25 µg/mL (≈ 0.42 µM)
- MIC ([2]; Table 4, agar dilution): 1 µg/mL (≈ 1.68 µM)
- MIC (Enterococcus faecalis): 0.125 µg/mL (≈ 0.21 µM)

Structure (SMILES): CN(C)c1cc(CN2CCC3CCCCC3C2)c(O)c2c1CC1CC3[C@H](N(C)C)C(O)=C(C(N)=O)C(=O)[C@@]3(O)C(O)=C1C2=O (some centres unmarked) [Compound c, reference compound]
- MIC (Escherichia coli; Table 4): 4 µg/mL (≈ 6.57 µM)
- MIC (Acinetobacter baumannii; Table 4, agar dilution): 4 µg/mL (≈ 6.57 µM)
- MIC (Klebsiella pneumoniae; Table 4): 16 µg/mL (≈ 26.3 µM)
- MIC (Streptococus agalactiae): 0.25 µg/mL (≈ 0.411 µM)
- MIC [3]: 0.5 µg/mL (≈ 0.821 µM)
- MIC ([2]; Table 4, agar dilution): 1 µg/mL (≈ 1.64 µM)
- MIC (Enterococcus faecalis): 0.5 µg/mL (≈ 0.821 µM)
